“And” between values parts separate entries of the source, which are not always exact repeats. Equal entries are not always repeated.
What was measured:
[1] = test system: human osteoclast precursor cells derived from bone marrow; test: osteoclast differentiation assay (medium TRACP 5b at day 7); assay type: cell-based
Description: The objective of this study is to investigate the effects of selected test compounds selected on resorbing activity of human osteoclasts in vitro. Bone resorption is studied using a model where human osteoclast precursor cells derived from bone marrow are cultured for 7 days on bovine bone slices and allowed to differentiate into bone-resorbing osteoclasts. […] In each test, a baseline group without test compounds is included to obtain a baseline value. […] The test system can also be modified by adding the test compounds at the beginning of the culture period to study if the test compounds affect osteoclast differentiation. Osteoprotegerin is used as a reference inhibitor of osteoclast differentiation in such cultures.
Appropriate dilutions were made from the stock solution to obtain the desired test concentrations (0.1 nM, 1 nM and 10 nM in osteoclast differentiation assay and 1 nM, 10 nM and 100 nM in osteoclast activity assay).

human osteoclasts [2] = test: osteoclast activity assay (bone resorption on bovine bone slices, CTX/TRACP 5b); assay type: cell-based; details: for concentration of CTX released from bone collagen into the culture medium: resorption phase days 7-10
Description: The objective of this study is to investigate the effects of selected test compounds selected on resorbing activity of human osteoclasts in vitro. Bone resorption is studied using a model where human osteoclast precursor cells derived from bone marrow are cultured for 7 days on bovine bone slices and allowed to differentiate into bone-resorbing osteoclasts. At day 7, the culture medium is changed, the test compounds are added, and the formed mature osteoclasts are allowed to resorb bone in an additional 3-day culture period. Tartrate-resistant acid phosphatase isoform 5b activity (TRACP 5b) is measured from the culture medium collected at day 7 as an index of the number of osteoclasts formed in each well during the differentiation period. After the totally 10 days culture period, C-terminal cross-linked telopeptides of type I collagen (CTX) are quantitated from the culture medium as an index of bone resorption. The results are expressed as the resorption index (CTX at day 10/TRACP 5b at day 7), which describes the mean activity of a single osteoclast. In each test, a baseline group without test compounds is included to obtain a baseline value. […] The test system can also be modified by adding the test compounds at the beginning of the culture period to study if the test compounds affect osteoclast differentiation. Osteoprotegerin is used as a reference inhibitor of osteoclast differentiation in such cultures.
Used herein is a method where osteoclast precursor cells derived from human bone marrow are cultured on bovine bone slices. The cells are first allowed to differentiate into mature bone-resorbing osteoclasts, and the formed osteoclasts are then allowed to resorb bone. The system is ideally suitable for determining the effects of test compounds on bone resorption in vitro. Test compounds are added into the cell cultures after the differentiation period, and their effect on the resorbing activity of mature osteoclasts is determined.
(§1) The bone resorption assay is performed according to the above described Standard Operation Procedure. Shortly, human bone marrow-derived stem cells are suspended to culture medium and allowed to attach to bovine bone slices. The bone slices are transferred into 96-well tissue culture plates containing culture medium with appropriate amounts of important growth factors favoring osteoclast differentiation, including M-CSF, RANK-ligand and TGF-beta. The cells are incubated in a CO2 incubator in humidified atmosphere of 95% air and 5% carbon dioxide at 37° C. At day 7 when osteoclast differentiation is completed, the culture medium is replaced with culture medium containing conditions favoring osteoclast activity, and the test compounds are added. The cell culture is continued for an additional three days, during which the formed mature osteoclasts are allowed to resorb bone in the presence of vehicle, control inhibitor (E64) or test compounds at different concentrations. Tartrate-resistant acid phosphatase isoform 5b activity (TRACP 5b) is measured from the culture medium collected at day 7 using the BoneTRAP® assay (SBA-Sciences, Oulu, Finland). Medium TRACP 5b activity describes the number of osteoclasts formed in each well during the differentiation period. At the end of the culture period, C-terminal cross-linked telopeptides of type I collagen (CTX) released from the bone slices are quantitated as an index of bone resorption using CrossLaps® for culture assay (Nordic Bioscience, Herlev, Denmark). The results are expressed as the resorption index (CTX at day 10/TRACP 5b at day 7), which describes the mean activity of a single osteoclast. When necessary, the ToxiLight® assay (Cambrex, East Rutherford, N.J., USA) is used to detect cytotoxic effects of test compounds.
Two separate experiments were performed in this study, an osteoclast differentiation assay and an osteoclast activity assay.

human osteoclasts [3] = test: cytotoxicity in human osteoclast activity assay (luminescence released from dying cells); details: day 10; for Cytotoxicity, % compared with baseline group: baseline mean = 100%
Description: as §1
Two separate experiments were performed in this study, an osteoclast differentiation assay and an osteoclast activity assay. In the osteoclast differentiation assay, osteoclast precursor cells were cultured for 7 days in the presence of the test compound, and TRACP 5b released into the culture medium was determined at day 7 as an index of the number of osteoclasts formed. Cytotoxicity was determined by quantitating the amount of dying cells from the culture medium at day 2. In the osteoclast activity assay, the test compounds were added after osteoclast differentiation was completed at day 7, and the mature osteoclasts were cultured for an additional 3 days, allowing them to resorb bone. […] Medium CTX was measured at day 10 to quantitate bone resorption during days 7-10, and the results are expressed as the resorption index CTX at day 10/TRACP 5b at day 7, which describes the mean resorbing activity of a single osteoclast. Cytotoxicity was determined by quantitating the amount of dying cells from the culture medium at day 10.
The test compounds were added after osteoclast differentiation was completed at day 7, and the mature osteoclasts were cultured for an additional 3 days, allowing them to resorb bone. […] Medium CTX was measured at day 10 to quantitate bone resorption during days 7-10, and the results are expressed as the resorption index CTX at day 10/TRACP 5b at day 7, which describes the mean osteoclast activity. Cytotoxicity was determined by quantitating the amount of dying cells from the culture medium at day 10.

[4] = Homo sapiens, Osteoclast, read-out: Resorbing activity, % of activity compared with baseline group
[5] = 1.0 μM E64, Mean of 6 replicates

C=CC[C@H]1C(=O)C(C)(C)[C@@H](O)CC(=O)O[C@H](c2ccc3sc(C)nc3c2)C[C@@H]2O[C@]2(C)CCC[C@H](C)[C@@H]1O [EPO-477, (1S,3S,7S,10R,11S,12S,16R)-7,11-dihydroxy-3-(2-methyl-benzothiazol-5-yl)-10-(prop-2-en-1-yl)-8,8,12,16-tetramethyl-4,17-dioxabicyclo[14.1.0]heptadecane-5,9-dione]
medium TRACP 5b activity at day 7 ([1]; 0.1 nM, Mean of 6 replicates, in U/L): 18.24 | medium TRACP 5b activity at day 7 ([1]; 0.1 nM, single replicate, in U/L): 14.72 and 16.43 and 21.41 and 17.57 and 17.37 and 21.95 | medium TRACP 5b activity at day 7 ([1]; 1 nM, Mean of 6 replicates, in U/L): 8.27 | medium TRACP 5b activity at day 7 ([1]; 1 nM, single replicate): 9.20 (2×) and 8.25 and 7.59 and 7.52 and 7.84 | medium TRACP 5b activity at day 7 ([1]; 10 nM, Mean of 6 replicates, in U/L): 2.45 | medium TRACP 5b activity at day 7 ([1]; 10 nM, single replicate, in U/L): 2.88 and 3.02 and 2.34 and 2.15 and 1.93 and 2.41 | resorption index CTX at day 10/TRACP 5b at day 7 (human osteoclasts [2]; 1 nM, Mean of 6 replicates): 3.31 | concentration of CTX released from bone collagen into the culture medium (human osteoclasts [2]; 1 nM, Mean of 6 replicates): 60.34 nM | concentration of CTX released from bone collagen into the culture medium (human osteoclasts [2]; 1 nM, single replicate): 56.56 nM and 68.03 nM and 54.94 nM and 58.62 nM and 61.84 nM and 62.04 nM | resorption index CTX at day 10/TRACP 5b at day 7 (human osteoclasts [2]; 1 nM, single replicate): 3.32 and 4.36 and 3.20 and 2.98 and 3.09 and 2.90 | resorption index CTX at day 10/TRACP 5b at day 7 (human osteoclasts [2]; 10 nM, Mean of 6 replicates): 1.14 | concentration of CTX released from bone collagen into the culture medium (human osteoclasts [2]; 10 nM, Mean of 6 replicates): 20.16 nM | concentration of CTX released from bone collagen into the culture medium (human osteoclasts [2]; 10 nM, single replicate): 10.31 nM and 31.82 nM and 15.76 nM and 16.61 nM and 29.41 nM and 17.07 nM | resorption index CTX at day 10/TRACP 5b at day 7 (human osteoclasts [2]; 10 nM, single replicate): 0.79 and 1.45 and 0.84 and 1.00 and 1.93 and 0.82 | resorption index CTX at day 10/TRACP 5b at day 7 (human osteoclasts [2]; 100 nM, Mean of 6 replicates): 0.78 | concentration of CTX released from bone collagen into the culture medium (human osteoclasts [2]; 100 nM, Mean of 6 replicates): 13.45 nM | concentration of CTX released from bone collagen into the culture medium (human osteoclasts [2]; 100 nM, single replicate): 15.63 nM and 14.51 nM and 11.55 nM and 16.48 nM and 6.70 nM and 15.83 nM | resorption index CTX at day 10/TRACP 5b at day 7 (human osteoclasts [2]; 100 nM, single replicate): 0.87 and 0.92 and 0.56 and 0.89 and 0.36 and 1.07 | activity at 0.0025 µM (human osteoclasts [2]; [4]): 95% | activity at 0.005 µM (human osteoclasts [2]; [4]): 103% | activity at 0.0075 µM (human osteoclasts [2]; [4]): 109% | activity at 0.01 µM (human osteoclasts [2]; [4]): 79% | activity at 0.015 µM (human osteoclasts [2]; [4]): 45% | activity at 0.02 µM (human osteoclasts [2]; [4]): 62% | activity at 0.05 µM (human osteoclasts [2]; [4]): 38% | luminescence released from dying cells during the culture period (human osteoclasts [3]; 1 nM, Mean of 6 replicates): 1864 | luminescence released from dying cells during the culture period (human osteoclasts [3]; 1 nM, single replicate): 2371 and 1802 and 1966 and 1781 and 1685 and 1577 | Cytotoxicity, % compared with baseline group (human osteoclasts [3]; 2.5 nM): 98% | Cytotoxicity, % compared with baseline group (human osteoclasts [3]; 5 nM): 96% | Cytotoxicity, % compared with baseline group (human osteoclasts [3]; 7.5 nM): 91% | luminescence released from dying cells during the culture period (human osteoclasts [3]; 10 nM, Mean of 6 replicates): 1957 | Cytotoxicity, % compared with baseline group (human osteoclasts [3]; 10 nM): 96% | luminescence released from dying cells during the culture period (human osteoclasts [3]; 10 nM, single replicate): 2193 and 2097 and 2126 and 1815 and 1909 and 1599 | Cytotoxicity, % compared with baseline group (human osteoclasts [3]; 15 nM): 79% | Cytotoxicity, % compared with baseline group (human osteoclasts [3]; 20 nM): 78% | Cytotoxicity, % compared with baseline group (human osteoclasts [3]; 50 nM): 85% | luminescence released from dying cells during the culture period (human osteoclasts [3]; 100 nM, Mean of 6 replicates): 2666 | luminescence released from dying cells during the culture period (human osteoclasts [3]; 100 nM, single replicate): 2837 and 2911 and 2428 and 2741 and 2112 and 2964

CC(C)C[C@H](NC(=O)[C@H]1O[C@@H]1C(=O)O)C(=O)NCCCCN=C(N)N [Compound E64, reference compound]
resorption index CTX at day 10/TRACP 5b at day 7 (human osteoclasts [2]; [5]): 0.45 | concentration of CTX released from bone collagen into the culture medium (human osteoclasts [2]; [5]): 8.44 nM | concentration of CTX released from bone collagen into the culture medium (human osteoclasts [2]; 1.0 μM E64, single replicate): 9.13 nM and 10.96 nM and 7.91 nM and 7.78 nM and 9.39 nM and 5.45 nM | resorption index CTX at day 10/TRACP 5b at day 7 (human osteoclasts [2]; 1.0 μM E64, single replicate): 0.41 (2×) and 0.64 and 0.38 and 0.59 and 0.29 | luminescence released from dying cells during the culture period (human osteoclasts [3]; [5]): 1594 | luminescence released from dying cells during the culture period (human osteoclasts [3]; 1.0 μM E64, single replicate): 1979 and 1666 and 1489 and 1568 and 1355 and 1507

CC(=O)O[C@H]1C(=O)[C@@]2(C)[C@H]([C@H](OC(=O)c3ccccc3)[C@]3(O)C[C@H](OC(=O)[C@H](O)[C@@H](NC(=O)c4ccccc4)c4ccccc4)C(C)=C1C3(C)C)[C@]1(OC(C)=O)CO[C@@H]1C[C@@H]2O [Paclitaxel, paclitaxel, reference compound]
activity at 0.0025 µM (human osteoclasts [2]; [4]): 109% | activity at 0.005 µM (human osteoclasts [2]; [4]): 98% | activity at 0.01 µM (human osteoclasts [2]; [4]): 87% | activity at 0.02 µM (human osteoclasts [2]; [4]): 95% | activity at 0.05 µM (human osteoclasts [2]; [4]): 64% | activity at 0.1 µM (human osteoclasts [2]; [4]): 57% | activity at 0.2 µM (human osteoclasts [2]; [4]): 72% | Cytotoxicity, % compared with baseline group (human osteoclasts [3]; 2.5 nM): 121% | Cytotoxicity, % compared with baseline group (human osteoclasts [3]; 5 nM): 99% | Cytotoxicity, % compared with baseline group (human osteoclasts [3]; 10 nM): 121% | Cytotoxicity, % compared with baseline group (human osteoclasts [3]; 20 nM): 116% | Cytotoxicity, % compared with baseline group (human osteoclasts [3]; 50 nM): 131% | Cytotoxicity, % compared with baseline group (human osteoclasts [3]; 100 nM): 120% | Cytotoxicity, % compared with baseline group (human osteoclasts [3]; 200 nM): 125%

B1: OPG: Osteoprotegerin, reference inhibitor of osteoclast differentiation (PeproTech 450-14) (protein, UniProt O00300 22-401, looked up)
Tumor necrosis factor …: ETFPPKYLHYDEETSHQLLCDKCPPGTYLKQHCTAKWKTVCAPCPDHYYTDSWHTSDECLYCSPVCKELQYVKQECNRTHNRVCECKEGRYLEIEFCLKHRSCPPGFGVVQAGTPERNTVCKRCPDGFFSNETSSKAPCRKHTNCSVFGLLLTQKGNATHDNICSGNSESTQKCGIDVTLCEEAFFRFAVPTKFTPNWLSVLVDNLPGTKVNAESVERIKRQHSSQEQTFQLLKLWKHQNKDQDIVKKIIQDIDLCENSVQRHIGHANLTFEQLRSLMESLPGKKVGAEDIEKTIKACKPSDQILKLLSLWRIKNGDQDTLKGLMHALKHSKTYHFPKTVTQSLKKTIRFLHSFTMYKLYQKLFLEMIGNQVQSVKISCL
medium TRACP 5b activity at day 7 ([1]; 100 ng/ml OPG, Mean of 6 replicates, in U/L): 8.59 | medium TRACP 5b activity at day 7 ([1]; 100 ng/ml OPG, single replicate, in U/L): 4.46 and 10.67 and 10.53 and 10.19 and 5.70 and 10.00

Source: US20080146626A1, “USE OF EPOTHILONES IN THE TREATMENT OF OSTEOPOROSIS AND RELATED DISEASES” (priority 2006, published 2008)
